Measurements reported in patent US20130178413A1, “HCV NS3 PROTEASE INHIBITORS” (priority 2010, published 2013).
Like-named read-outs stand apart in the source and are kept apart here.

Columns and labels:
[1] = target: NS3/4A protease gt 1b (Hepatitis C virus genotype 1b, UniProt P26663); assay: HCV NS3 protease time-resolved fluorescence (TRF) assay, NS3/4A inhibitory activity (Ki), gt 1b; format: biochemical; conditions: genotype 1b NS3/4A; read-out: Enzyme Activity gt 1b Ki
Protocol: (§1) The HCV NS3 protease inhibitory activity of the present compounds may be tested using assays known in the art. One such assay is HCV NS3 protease time-resolved fluorescence (TRF) assay as described below and in International Patent Application Publication WO2006/102087. Other examples of such assays are described in e.g., International Patent Application Publication WO2005/046712. HCV NS3 protease inhibitors, such as those described herein have a Ki less than 50 μM, such as less than 10 μM, and less than 100 nM. Ki is determined by an NS3 protease assay. The assay is performed in a final volume of 100 μl in assay buffer containing 50 mM HEPES, pH 7.5, 150 mM NaCl, 15% glycerol, 0.15% TRITON X-100, 10 mM DTT, and 0.1% PEG 8000. NS3 protease is pre-incubated with various concentrations of inhibitors in DMSO for 30 minutes. The reaction is initiated by adding the TRF peptide substrate (final concentration 100 nM). NS3 mediated hydrolysis of the substrate is quenched after 1 hour at room temperature with 100 μl of 500 mM MES, pH 5.5. Product fluorescence is detected using either a VICTOR V2 or FUSION fluorophotometer (Perkin Elmer Life and Analytical Sciences) with excitation at 340 nm and emission at 615 nm with a 400 μs delay. Testing concentrations of different enzyme forms are selected to result in a signal to background ratio (S/B) of 10-30. IC50 values are derived using a standard four-parameter fit to the data. Ki values are derived from IC50 values using the following formula,
(§2) IC50=Ki(1+[S]/KM), Eqn (1),
(§3) where [S] is the concentration of substrate peptide in the reaction and KM is the Michaelis constant. See P. Gallinari et al., 38 BIOCHEM. 5620-32 (1999); P. Gallinari et al., 72 J. VIROL. 6758-69 (1998); M. Taliani et al., 240 ANAL. BIOCHEM. 60-67 (1996).
(§4) One such assay is HCV NS3 protease time-resolved fluorescence (TRF) assay as described below and in Mao et al., Anal Biochem. 373:1-8, 2008 and International Patent Application Publication WO 2006/102087. A NS3 protease assay can be performed, for example, in a final volume of 100 μl assay buffer containing 50 mM HEPES, pH 7.5, 150 mM NaCl, 15% glycerol, 0.15% TRITON X-100, 10 mM DTT, and 0.1% PEG 8000. NS3 and NS4A protease is pre-incubated with various concentrations of inhibitors in DMSO for 30 minutes. The reaction is initiated by adding the TRF peptide substrate (final concentration 100 nM). NS3 mediated hydrolysis of the substrate is quenched after 1 hour at room temperature with 100 μl of 500 mM MES, pH 5.5. Product fluorescence is detected using either a VICTOR V2 or FUSION fluorophotometer (Perkin Elmer Life and Analytical Sciences) with excitation at 340 nm and emission at 615 nm with a 400 μs delay. Testing concentrations of different enzyme forms are selected to result in a signal to background ratio (S/B) of 10-30. IC50 values are derived using a standard four-parameter fit to the data. Ki values are derived from IC50 values using the following formula,
as §3, with “(1996); Mao et al., Analytical Biochemistry 373: 1-8, 2008. Measuring Compound Inhibitory Potency (Replicon EC50 (nM))” for “(1996).”

[2] = target: NS3/4A protease gt 1b A156V (Hepatitis C virus genotype 1b, UniProt P26663, A1182V); assay: HCV NS3 protease time-resolved fluorescence (TRF) assay, NS3/4A inhibitory activity (Ki), gt 1b A156V mutant; format: biochemical, hepatitis C virus (HCV)
Protocol: as §1, §2, §3, §4
as §3, with “(1996); Mao et al., Analytical Biochemistry 373: 1-8, 2008. Measuring Compound Inhibitory Potency (Replicon EC50 (nM))” for “(1996).”

[3] = target: NS3/4A protease gt 3a (Hepatitis C virus genotype 3a, UniProt Q81258); assay: HCV NS3 protease time-resolved fluorescence (TRF) assay, NS3/4A inhibitory activity (Ki), gt 3a; format: biochemical; conditions: genotype 3a NS3/4A; read-out: Enzyme Activity gt 3a Ki
Protocol: as §1, §2, §3, §4
as §3, with “(1996); Mao et al., Analytical Biochemistry 373: 1-8, 2008. Measuring Compound Inhibitory Potency (Replicon EC50 (nM))” for “(1996).”

[4] = tested on: gt 1b Replicon; assay: HCV replicon assay, compound inhibitory potency (Replicon EC50); format: cell-based; conditions: Hepatitis C virus, GT1B
Protocol: Measurement of inhibition by compounds was performed using the HCV replicon system. Several different replicons encoding different HCV genotypes or mutations were used. In addition, potency measurements were made using different formats of the replicon assay, including different ways of measurements and different plating formats. See Jan M. Vrolijk et al., A replicons-based bioassay for the measurement of interferons in patients with chronic hepatitis C, 110 J. VIROLOGICAL METHODS 201 (2003); Steven S. Carroll et al., Inhibition of Hepatitis C Virus RNA Replication by 2′-Modified Nucleoside Analogs, 278(14) J. BIOLOGICAL CHEMISTRY 11979 (2003). However, the underlying principles are common to all of these determinations, and are outlined below.
Stable neomycin phosphotransferase encoding replicon-harboring cell lines were used, so all cell lines were maintained under G418 selection prior to the assay. In some cases the cell lines encoded a luciferase:Neor fusion and could be assayed either directly by determination of RNA copy number, or indirectly through measurement of the luciferase activity.
To initiate an assay, replicon cells were plated in the presence of a dilution series of test compound in the absence of G418. Typically, the assays were performed in a 96-well plate format for manual operation, or a 384 well plate in an automated assay. Replicon cells and compound were incubated for 24-48 hours, depending on the assay. At the end of the assay, cells are washed free of media and compound and then lysed. For direct quantitation, RNA levels were measured by ^32P-probe hybridization and protection, or in a TAQMAN based assay and normalized to cellular cyclophilin A RNA levels. In some cases, luciferase activity was measured using a conventional luciferase assay. In all cases EC50 determinations were calculated as a percent of a DMSO control by fitting the data to a four parameter fit function.

[5] = 10% Fetal Bovine Serum, read-out: gt 1b Replicon EC50 10% FBS
[6] = 50% Normal Human Serum, read-out: gt 1b Replicon EC50 50% NHS

C=C[C@@H]1C[C@]1(NC(=O)[C@@H]1C[C@@H]2CN1C(=O)[C@H](C1CCCC1)NC(=O)O[C@]1(C)C[C@H]1CC/C=C/Cn1c(nc3cc(C)ccc3c1=O)O2)C(=O)NS(=O)(=O)C1CC1 [Example I-23, (1aR,5S,8S,10R,20E,23aR)-5-cyclopentyl-N-{(1R,2S)-1-[(cyclopropylsulfonyl)carbamoyl]-2-ethenylcyclopropyl}-1a,14-dimethyl-3,6,17-trioxo-1,1a,3,4,5,6,9,10,19,22,23,23a-dodecahydro-8H,17H-7,10-methano cyclopropa[18,19][1, 10,3,6,12]dioxatriaza cyclononadecino[11,12-b]quinazoline-8-carboxamide]
Ki [1]: 0.02 nM
Ki [2]: 1.2 nM
Ki [3]: 1 nM
EC50 [4, 5]: 2 nM
EC50 [4, 6]: 6 nM

CC[C@@H]1C[C@]1(NC(=O)[C@@H]1C[C@@H]2CN1C(=O)[C@H](C1CCCC1)NC(=O)O[C@]1(C)CCC[C@H]1CCCCCc1c(nc3ccccc3c1O)O2)C(=O)NS(=O)(=O)C1CC1 [Example I-18, (3aR,7S,10S,12R,24aR)-7-cyclopentyl-N-{(1R,2R)-1-[(cyclopropylsulfonyl)carbamoyl]-2-ethylcyclopropyl}-19-hydroxy-3a-methyl-5,8-dioxo-1,2,3,3a,5,6,7,8,11,12,20,21,22,23,24, 24a-hexadecahydro-10H-9,12-methano cyclopenta[18,19][1,10,3,6]dioxadiazacyclo nonadecino[11,12-b]quinoline-10-carboxamide]
Ki [1]: 0.07 nM
Ki [2]: 42.5 nM
Ki [3]: 9.2 nM
EC50 [4, 5]: 30 nM
EC50 [4, 6]: 35 nM

C=C[C@@H]1C[C@]1(NC(=O)[C@@H]1C[C@@H]2CN1C(=O)[C@H](C(C)(C)C)NC(=O)O[C@]1(C)C[C@H]1CCC/C=C/c1cccc3c1CN(C3)C(=O)O2)C(=O)NS(=O)(=O)C1CC1 [Example I-5, (1aR,5S8S,10R,19E,23aR)-5-tert-butyl-N-{(1R,2S)-1-[(cyclopropylsulfonyl)carbamoyl]-2-ethenylcyclopropyl}-1a-methyl-3,6,12-trioxo-1a,3,4,5,6,9,10,14,21,22,23,23a-dodecahydro-1H,8H-7,10:13,15-dimethanocycloproa[n][4,13,2,8,11]benzodioxatriazacyclodocosine-8(12H)-carboxamide]
Ki [1]: 0.02 nM
Ki [2]: 1.3 nM
Ki [3]: 1 nM
EC50 [4, 5]: 3 nM
EC50 [4, 6]: 22 nM

C=C[C@@H]1C[C@]1(NC(=O)[C@@H]1C[C@@H]2CN1C(=O)[C@H](C1CCCC1)NC(=O)O[C@]1(C)C[C@H]1CCCCCc1nc3ccccc3nc1O2)C(=O)NS(=O)(=O)C1CC1 [Example I-28, (1aR,5S,8S,10R,22aR)-5-cyclopentyl-N-{(1R,2S)-1-[(cyclopropylsulfonyl)carbamoyl]-2-ethenylcyclopropyl}-1a-methyl-3,6-dioxo-1,1a,3,4,5,6,9,10,18,19, 20,21,22,22a-tetradecahydro-8H-7,10-methanocyclo propa[18,19][1,10,3,6] dioxadiazacyclonona decino[11,12-b]quinoxaline-8-carboxamide]
Ki [1]: 0.04 nM
Ki [2]: 2.7 nM
Ki [3]: 3.2 nM
EC50 [4, 5]: 2 nM
EC50 [4, 6]: 10 nM

C=C[C@@H]1C[C@]1(NC(=O)[C@@H]1C[C@@H]2CN1C(=O)[C@H](C1CCCC1)NC(=O)O[C@]1(C)C[C@H]1CC/C=C/Cc1c(nc3ccccc3c1O)O2)C(=O)NS(=O)(=O)C1CC1 [Example I-4, (1R,14E,18R,20R,24S,27S)-24-Cyclopentyl-N-((1R,2S)-1-{[(cyclopropylsulfonyl)amino]carbonyl}-2-vinylcyclopropyl)-11-hydroxy-20-methyl-22,25-dioxo-2,21-dioxa-4,23,26-triazapentacyclo[24.2.1.0^3,12.0^5,10.0^18,20]nonacosa-3,5,7,9,11,14-hexaene-27-carboxamide]
Ki [1]: 0.04 nM
Ki [2]: 0.9 nM
Ki [3]: 0.7 nM
EC50 [4, 5]: 7 nM
EC50 [4, 6]: 17 nM

C=C[C@@H]1C[C@]1(NC(=O)[C@@H]1C[C@@H]2CN1C(=O)[C@H](C1CCCC1)NC(=O)O[C@]1(C)C[C@H]1CC/C=C/Cn1c(nc3cc(C)ccc3c1=O)O2)C(=O)NS(=O)(=O)C1(C)CC1 [Example I-24, (1aR,5S,8S,10R,20E,23aR)-5-cyclopentyl-N-[(1R,2S)-2-ethenyl-1-{[(1-methylcyclopropyl)sulfonyl]carbamoyl}cyclopropyl]-1a,14-dimethyl-3,6,17-trioxo-1,1a,3,4,5,6,9,10,19,22,23,23a-dodecahydro-8H,17H-7,10-methanocyclo propa[18,19][1,10,3,6,12] dioxatriazacyclo nonadecino[11,12-b]quinazoline-8-carboxamide]
Ki [1]: 0.02 nM
Ki [2]: 0.9 nM
Ki [3]: 0.7 nM
EC50 [4, 5]: 2 nM
EC50 [4, 6]: 8.5 nM

C=C[C@@H]1C[C@]1(NC(=O)[C@@H]1C[C@@H]2CN1C(=O)[C@H](C1CCCC1)NC(=O)O[C@]1(C)C[C@H]1CCCCCc1nc3cccc(OC)c3nc1O2)C(=O)NS(=O)(=O)C1(C)CC1 [Example I-1, (1R,18R,20R,24S,27S)-24-Cyclopentyl-6-methoxy-20-methyl-N-[(1R,2S)-1-({[(1-methylcyclopropyl)sulfonyl]amino}carbonyl)-2-vinylcyclopropyl]-22,25-dioxo-2,21-dioxa-4,11,23,26-tetraazapentacyclo[24.2.1.0^3,12.0^5,10.0^18,20]nonacosa-3,5,7,9,11-pentaene-27-carboxamide]
Ki [1]: 0.04 nM
Ki [2]: 1 nM
Ki [3]: 1.6 nM
EC50 [4, 5]: 2 nM
EC50 [4, 6]: 7.6 nM
